29 compounds from BindingDB's records for doi:10.7270/Q2TX3CTT (Broad Institute, 2010) can be followed below.

The EC50 is the concentration needed to bring the measured effect to its halfway point. Read a high EC50 as weaker potency.

Bounds are passed on as bounds.

For this experiment, the target named is Glycogen synthase kinase-3 beta (Homo sapiens, UniProt P49841). Put plainly: concentration-response blocking of human GSK3B – biochemical, luminescence, cell-free homogeneous, retest, dose response (AID 434954).
Sequence of Glycogen synthase kinase-3 beta (P49841 whole entry): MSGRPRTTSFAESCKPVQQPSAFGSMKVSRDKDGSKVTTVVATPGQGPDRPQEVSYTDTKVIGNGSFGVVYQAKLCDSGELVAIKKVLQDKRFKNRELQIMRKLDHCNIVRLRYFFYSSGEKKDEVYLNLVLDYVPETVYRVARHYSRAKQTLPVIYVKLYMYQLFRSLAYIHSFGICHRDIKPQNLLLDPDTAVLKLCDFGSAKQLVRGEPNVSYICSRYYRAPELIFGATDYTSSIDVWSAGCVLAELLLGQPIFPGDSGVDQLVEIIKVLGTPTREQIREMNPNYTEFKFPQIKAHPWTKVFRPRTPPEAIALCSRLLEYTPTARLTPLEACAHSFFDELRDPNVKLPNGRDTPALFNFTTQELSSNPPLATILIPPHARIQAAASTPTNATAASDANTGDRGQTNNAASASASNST
Compound `CCCCCC(=O)N1CCN(S(=O)(=O)c2ccc3c(c2)OCCCO3)CC1` [MLS001161784] registered a 50% effective concentration (EC50) greater than 300 µM.

Turning to `N#Cc1c(Cl)nc(-c2ccncc2)nc1-c1ccccc1` [SMR000549420], the EC50 turned out to be 15.2 µM.

The compound `CCn1nc(NC(=O)CC(C)C)c2cc3cccc(C)c3nc21` [SMR000542878] had a concentration giving a half-maximal response (EC50) greater than 300 µM.

In turn, `COc1ccc(C(=O)c2coc3ccc(O)c(CN4CCCC4)c23)cc1` [[5-hydroxy-4-(1-pyrrolidinylmethyl)-3-benzofuranyl]-(4-methoxyphenyl)methanone] registered an EC50 greater than 300 µM.

`COc1ccc(C2C3=C(CC(C)(C)CC3=O)N=C(C)C2C#N)cc1` (centres undefined) [4-(4-methoxyphenyl)-2,7,7-trimethyl-5-oxidanylidene-1,4,6,8-tetrahydroquinoline-3-carbonitrile] had an EC50 greater than 300 µM.

For `Cc1cc(CN(C)C(=O)c2ccc(OC3CCN(CCc4ccccc4)CC3)cc2)on1` [MLS001100796], the concentration for a half-maximal effect (EC50) is greater than 300 µM.

`O=C(O)COc1ccc2oc3ccccc3c2c1` [SMR000243853] yielded a concentration for a half-maximal effect (EC50) greater than 300 µM.

As to `CC1=C(C#N)C(=O)NC(=O)C1=NNc1ccc(Cl)c(C(=O)O)c1` [MLS001213189], a half-maximal effect (EC50) was put at 39.8 µM. This lies in the double-digit micromolar range.

The compound `Cc1ccc(-n2c(N)c(C(=O)NCc3cccnc3)sc2=S)cc1` [MLS000535145] came in with an EC50 greater than 300 µM.

In turn, `COCCNc1nc(N)c([N+](=O)[O-])c(Nc2ccc(F)cc2)n1` yielded a half-maximal effective concentration (EC50) greater than 300 µM.

`O=C(N1CCN(c2ccccc2F)CC1)C12CC3CC(CC(C3)C1)C2` [SMR000071700] showed a half-maximal effective concentration (EC50) greater than 300 µM.

Take `COc1ccc(Nc2ccccc2C(=O)O)cc1` [SMR000370544]: the EC50 is greater than 300 µM.

As to `O=C(O)c1ccccc1Nc1ccc([N+](=O)[O-])cc1`, the EC50 is greater than 300 µM.

The compound `CN1CCN(CCNC(=O)Nc2ccccc2[N+](=O)[O-])CC1` [N-[2-(4-methylpiperazin-1-yl)ethyl]-N'-(2-nitrophenyl)urea] showed a concentration giving a half-maximal response (EC50) greater than 300 µM.

Compound `Cc1cc(NC(=O)CSc2nc(-c3cccnc3)ccc2C#N)no1` [MLS000036936] came in with a 50% effective concentration (EC50) greater than 300 µM.

In turn, `CCOC(=O)C1C(C)=Nc2ncnn2C1c1cccnc1` (centres undefined) yielded an EC50 greater than 300 µM.

In the case of `COc1cc(/C=C2\Oc3cc(O)ccc3C2=O)ccc1O`, it took 12.4 µM to reach a half-maximal effect (EC50).

For `Cc1ccc(-c2nn(-c3ccccc3)cc2C=NNC(=O)c2ccc(Br)o2)cc1`, the EC50 is greater than 300 µM.

Consider `O=C1N=C(N2CCc3ccccc3C2)S/C1=C\c1ccc(O)cc1` [MLS001043290], for which the half-maximal effective concentration (EC50) was greater than 300 µM.

In turn, `Nc1nc(Cl)nc2c1ncn2C1OC(CO)C(O)C1O` (centres undefined) showed an EC50 greater than 300 µM.

Compound `COc1ccc(CNC(=O)CN(Cc2cccs2)C(=O)CCC(=O)Nc2ccccn2)cc1` [MLS000687650] yielded an EC50 of 13.4 µM.

For `COCC(C)n1c(C)cc(C(=O)COC(=O)c2ccc3c(c2)NC(=O)CS3)c1C` (centres undefined), the half-maximal effective concentration (EC50) is greater than 300 µM.

In turn, `COc1ccc(N(CN2C(=O)C3CC=CCC3C2=O)C(=O)c2ccco2)cc1` (centres undefined) [N-[(1,3-dioxo-3a,4,7,7a-tetrahydroisoindol-2-yl)methyl]-N-(4-methoxyphenyl)-2-furancarboxamide] came in with a concentration giving a half-maximal response (EC50) greater than 300 µM.

In turn, `CC(=O)N1CCc2c(sc(NC(=O)Cc3ccccc3)c2C(N)=O)C1` [MLS000879211] came in with a concentration giving a half-maximal response (EC50) of 24.4 µM. This counts as double-digit micromolar.

On to `COc1ccc(OC)c(CCNC(=O)c2ccc3c(=O)[nH]c4c(C(=O)NC(C)C)sc(=S)n4c3c2)c1`, for which the 50% effective concentration (EC50) was greater than 300 µM.

Compound `COc1ccccc1Nc1nc(NCCC(C)C)nc(N)c1[N+](=O)[O-]` [N'-(2-Methoxy-phenyl)-N-(3-methyl-butyl)-5-nitro-pyrimidine-2,4,6-triamine] came in with an EC50 of 0.584 µM.

For `COCc1c(C(=O)Nc2ccc(Cl)cc2F)oc2ccccc12` [N-(4-chloro-2-fluorophenyl)-3-(methoxymethyl)-2-benzofurancarboxamide], the EC50 was greater than 300 µM.

As to `CCN(CC)S(=O)(=O)c1cccc(NC(=O)COc2ccc(Cl)cc2Br)c1` [2-(2-bromanyl-4-chloranyl-phenoxy)-N-[3-(diethylsulfamoyl)phenyl]ethanamide], the EC50 is greater than 300 µM.

`Nc1nc(NCCOCCO)nc(NCC2CCCO2)c1[N+](=O)[O-]` (centres undefined) displayed an EC50 of 16.7 µM.
